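1) Cells in 96-well plates. 2) Compound, 48 h, 5 concentrations. 3) Linear interpolation between surrounding doses. 4) Unreached endpoint = highest concentration. At the GI50, growth is halved.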 Calls of active or inactive are those of the source. Cut-off read from the data, not from the text of the source: active = GI50 up to about 1.1 µM and inactive = higher.
Columns and labels:
Test in all cases: NCI-60 cell line screen, 48 h
[1] = test system: ACHN
[2] = test system: NCI/ADR-RES
[3] = test system: M14
[4] = test system: RPMI-8226
[5] = test system: K562
[6] = test system: BT-549
[7] = test system: NCI-H226
[8] = test system: OVCAR-5
[9] = test system: OVCAR-8
[10] = test system: 786-0
[11] = test system: OVCAR-4
[12] = test system: DU-145
[13] = test system: SK-MEL-28
[14] = test system: HOP-62
[15] = test system: SNB-75
[16] = test system: SK-MEL-2
[17] = test system: HOP-92
[18] = test system: MDA-MB-231
[19] = test system: OVCAR-3
[20] = test system: A549

Measured: GI50

Cc1ccc(C2=Nc3ccccc3SC(c3cccc([N+](=O)[O-])c3)C2)cc1 (stereo not given)
inactive: [1] > 100 µM | [2] 59.6 µM | [3] 23.9 µM | [4] 2.38 µM | [5] 6.56 µM | [6] 15.7 µM | [7] > 100 µM | [8] > 100 µM | [9] 10.2 µM | [10] 6.3 µM | [11] 27.4 µM | [12] 13.1 µM | [13] > 100 µM | [14] 27.6 µM | [15] 11.4 µM | [16] 34 µM | [17] 10.4 µM | [18] 40.6 µM | [19] 8.59 µM | [20] 26.2 µM

O=C1Nc2ccc(S(=O)(=O)N(CCO)CCO)cc2/C1=C1/Nc2ccccc2C1=O
inactive: [1] > 100 µM | [2] > 100 µM | [3] > 100 µM | [4] > 100 µM | [5] > 100 µM | [6] > 100 µM | [7] > 100 µM | [8] > 100 µM | [9] > 100 µM | [10] > 100 µM | [11] 48 µM | [12] 13.3 µM | [13] > 100 µM | [14] > 100 µM | [15] 2.82 µM | [16] > 100 µM | [17] > 100 µM | [18] 40.5 µM | [19] 18.2 µM | [20] > 100 µM

O=C1OC(=O)C2C1C(c1ccccc1[N+](=O)[O-])C=C(c1ccco1)N2c1ccncc1 (stereo not given)
inactive: [1] 1.85 µM | [2] 18.8 µM | [3] 6.84 µM | [4] 1.87 µM | [5] 1.35 µM | [6] 11.6 µM | [7] 12.8 µM | [8] 18.2 µM | [9] 10.7 µM | [10] 1.91 µM | [11] 15.2 µM | [12] 7.01 µM | [13] 8.34 µM | [14] 15.3 µM | [15] 14 µM | [16] 13.9 µM | [17] 3.68 µM | [18] 13 µM | [19] 11.9 µM | [20] 13.6 µM

c1ccc2c(c1)CCN2CCc1c[nH]c2ccccc12
inactive: [1] > 10 µM | [2] > 10 µM | [3] > 10 µM | [4] > 10 µM | [5] > 10 µM | [6] > 10 µM | [7] > 10 µM | [8] > 10 µM | [9] > 10 µM | [10] > 10 µM | [11] > 10 µM | [12] > 10 µM | [13] > 10 µM | [14] > 10 µM | [15] > 10 µM | [16] > 10 µM | [17] > 10 µM | [18] > 10 µM | [19] > 10 µM | [20] > 10 µM

COc1cc2c(cc1OC)-c1cc3ccc(OC)c(OC)c3c[n+]1CC2 [PALMATINE CHLORIDE]
inactive: [1] > 100 µM | [2] > 100 µM | [3] > 100 µM | [4] > 100 µM | [5] 52.4 µM | [6] > 100 µM | [7] > 100 µM | [8] > 100 µM | [9] > 100 µM | [10] > 100 µM | [11] > 100 µM | [12] > 100 µM | [13] > 100 µM | [14] > 100 µM | [15] > 100 µM | [16] 97.1 µM | [17] > 100 µM | [18] > 100 µM | [19] 39.9 µM | [20] > 100 µM
